Measured values as given in ChEMBL document CHEMBL4334438, “Discovery of novel glycogen synthase kinase-3α inhibitors: Structure-based virtual screening, preliminary SAR and biological evaluation for treatment of acute myeloid leukemia” (Eur J Med Chem, 2019).

Columns and labels:
[1] = test system: Tyrosine-protein kinase ABL1 (Homo sapiens), P00519 [Y253F]; experiment: Inhibition of human ABL1 Y253F mutant (27 to end residues) assessed as residual activity at 1 uM using EAIYAAPFAKKK as substrate incubated for 40 mins in presence of [gamma-33ATP] by scintillation counting based radiometry assay relative to control
[2] = target: Mitogen-activated protein kinase kinase kinase 5 (Homo sapiens) (UniProt Q99683); experiment: Inhibition of recombinant human ASK1 (649 to 946 residues) assessed as residual activity at 1 uM using myelin basic protein as substrate incubated for 40 mins in presence of [gamma-33ATP] by scintillation counting based radiometry assay relative to control
[3] = test system: Tyrosine-protein kinase Blk (Homo sapiens), P51451 [UNDEFINED MUTATION]; experiment: Inhibition of recombinant full length human BLK M287V mutant assessed as residual activity at 1 uM using poly(Glu, Tyr) 4:1 as substrate incubated for 40 mins in presence of [gamma-33ATP] by scintillation counting based radiometry assay relative to control
[4] = target: Calcium/calmodulin-dependent protein kinase type II subunit beta (Homo sapiens) (UniProt Q13554); experiment: Inhibition of recombinant human CaMK2beta (1 to 315 residues) assessed as residual activity at 1 uM using […] incubated for 40 mins in presence of [gamma-33ATP] by scintillation counting based radiometry assay relative to control
[5] = target: Serine/threonine-protein kinase DCLK3 (Homo sapiens) (UniProt Q9C098); experiment: Inhibition of recombinant human DCAMKL3 (345 to end residues) assessed as residual activity at 1 uM using KKLNRTLSFAEPG as substrate at 40 mins in presence of [gamma-33ATP] by scintillation counting based radiometry assay relative to control
[6] = target: Ephrin type-A receptor 3 (Homo sapiens) (UniProt P29320); experiment: Inhibition of recombinant human EphA3 (578 to end residues) assessed as residual activity at 1 uM using poly(Glu, Tyr) 4:1 as substrate at 40 mins in presence of [gamma-33ATP] by scintillation counting based radiometry assay relative to control
[7] = target: Beta-adrenergic receptor kinase 1 (Homo sapiens) (UniProt P25098); experiment: Inhibition of recombinant full length human GRK2 assessed as residual activity at 1 uM using casein as substrate at 40 mins in presence of [gamma-33ATP] by scintillation counting based radiometry assay relative to control
[8] = target: Homeodomain-interacting protein kinase 1 (Homo sapiens) (UniProt Q86Z02); experiment: Inhibition of human HIPK1 (158 to 555 residues) assessed as residual activity at 1 uM using myelin basic protein as substrate after 40 mins by [gamma-33ATP] radiometric assay relative to control
[9] = target: Insulin-like growth factor 1 receptor (Homo sapiens) (UniProt P08069); experiment: Inhibition of human IGF1R (959 to end residues) assessed as residual activity at 1 uM using KKKSPGEYVNIEFG as substrate after 40 mins by [gamma-33ATP] radiometric assay relative to control
[10] = target: Insulin-like growth factor 1 receptor (Homo sapiens) (UniProt P08069); experiment: Inhibition of human activated IGF1R (959 to end residues) assessed as residual activity at 1 uM using KKKSPGEYVNIEFG as substrate after 40 mins by [gamma-33ATP] radiometric assay relative to control
[11] = target: Tyrosine-protein kinase ITK/TSK (Homo sapiens) (UniProt Q08881); experiment: Inhibition of human Itk (352 to 617 residues) assessed as residual activity at 1 uM using myelin basic protein as substrate after 40 mins by [gamma-33ATP] radiometric assay relative to control
[12] = target: Mitogen-activated protein kinase 9 (Homo sapiens) (UniProt P45984); experiment: Inhibition of human JNK2alpha2 assessed as residual activity at 1 uM using ATF2 as substrate after 40 mins by [gamma-33ATP] radiometric assay relative to control
[13] = species on record: Homo sapiens; experiment: Inhibition of recombinant human MARK1 V16E/T20S mutant (2 to end residues) assessed as residual activity at 1 uM using KKKVSRSGLYRSPSMPENLNRPR as substrate incubated for 40 mins in presence of [gamma-33ATP by scintillation counting based radiometry assay relative to control
[14] = test system: Hepatocyte growth factor receptor (Homo sapiens), P08581 [D1228H]; experiment: Inhibition of recombinant human MET A1209G/V1290L/D1246H mutant (974 to end residues) assessed as residual activity at 1 uM using KKKGQEEEYVFIE as substrate incubated for 40 mins in presence of [gamma-33ATP by scintillation counting based radiometry assay relative to control
[15] = target: Serine/threonine-protein kinase MRCK alpha (Homo sapiens) (UniProt Q5VT25); experiment: Inhibition of recombinant human MRCKalpha (1 to 473 residues) assessed as residual activity at 1 uM using KKRNRTLTV as substrate measured after 40 mins in presence of [gamma33P]ATP by scintillation counting method relative to control
[16] = target: Myosin-IIIb (Homo sapiens) (UniProt Q8WXR4); experiment: Inhibition of recombinant human MYO3B (1 to 306 residues) assessed as residual activity at 1 uM using RLGRDKYKTLRQIRQ as substrate measured after 40 mins in presence of [gamma33P]ATP by scintillation counting method relative to control
[17] = target: Serine/threonine-protein kinase PAK 1 (Homo sapiens) (UniProt Q13153); experiment: Inhibition of recombinant human PAK1 (150 to end residues) assessed as residual activity at 1 uM using RRRLSFAEPG as substrate measured after 40 mins in presence of [gamma33P]ATP by scintillation counting method relative to control
[18] = species on record: Homo sapiens; experiment: Inhibition of recombinant human Plk4 S34T mutant (1 to 273 residues) assessed as residual activity at 1 uM using casein as substrate measured after 40 mins in presence of [gamma33P]ATP by scintillation counting method relative to control
[19] = target: Serine/threonine-protein kinase PRP4 homolog (Homo sapiens) (UniProt Q13523); experiment: Inhibition of recombinant human PRP4 (663 to end residues) assessed as residual activity at 1 uM using casein as substrate measured after 40 mins in presence of [gamma33P]ATP by scintillation counting method relative to control
[20] = target: STE20-like serine/threonine-protein kinase (Homo sapiens) (UniProt Q9H2G2); experiment: Inhibition of human SLK (1 to 373 residues) assessed as residual activity at 1 uM using RLGRDKYKTLRQIRQ as substrate measured after 40 mins in presence of [gamma33P]ATP by scintillation counting method relative to control
[21] = target: High affinity nerve growth factor receptor (Homo sapiens) (UniProt P04629); experiment: Inhibition of human TrkA (440 to end residues) assessed as residual activity at 1 uM using KKKSPGEYVNIEFG as substrate measured after 40 mins in presence of [gamma33P]ATP by scintillation counting method relative to control
[22] = target: PI3K p110 beta/p85 alpha (Homo sapiens) (UniProt P27986+P42338); experiment: Inhibition of recombinant full-length human PI3K p110beta/p85alpha at 1 uM assessed as residual activity at 1 uM using phosphatidylinositol-4, 5-bisphosphate as substrate measured after 40 mins by fluorescence assay; format: protein-complex assay
Sequence of PI3K p110 beta/p85 alpha (Homo sapiens) (P27986 2-724 limits assumed): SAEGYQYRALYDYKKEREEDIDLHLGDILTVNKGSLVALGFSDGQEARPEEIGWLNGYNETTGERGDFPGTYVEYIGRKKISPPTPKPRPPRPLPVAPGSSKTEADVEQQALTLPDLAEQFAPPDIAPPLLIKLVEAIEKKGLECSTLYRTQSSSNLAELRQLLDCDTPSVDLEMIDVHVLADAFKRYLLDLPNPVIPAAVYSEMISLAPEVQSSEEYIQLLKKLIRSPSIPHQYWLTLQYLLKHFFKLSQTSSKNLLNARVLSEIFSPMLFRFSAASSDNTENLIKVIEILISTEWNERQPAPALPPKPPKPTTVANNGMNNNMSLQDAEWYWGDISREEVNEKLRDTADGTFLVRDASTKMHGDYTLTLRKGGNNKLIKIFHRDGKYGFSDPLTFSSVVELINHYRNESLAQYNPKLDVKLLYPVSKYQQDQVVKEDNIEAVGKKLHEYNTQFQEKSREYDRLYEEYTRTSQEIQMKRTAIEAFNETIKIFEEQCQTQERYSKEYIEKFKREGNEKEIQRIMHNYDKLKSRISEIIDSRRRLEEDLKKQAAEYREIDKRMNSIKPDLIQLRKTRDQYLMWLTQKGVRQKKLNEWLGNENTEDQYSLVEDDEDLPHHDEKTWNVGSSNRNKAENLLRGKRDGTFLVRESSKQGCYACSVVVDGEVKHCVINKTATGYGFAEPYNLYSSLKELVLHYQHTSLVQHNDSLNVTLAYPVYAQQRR
Sequence of PI3K p110 beta/p85 alpha (Homo sapiens) (P42338 whole entry partner): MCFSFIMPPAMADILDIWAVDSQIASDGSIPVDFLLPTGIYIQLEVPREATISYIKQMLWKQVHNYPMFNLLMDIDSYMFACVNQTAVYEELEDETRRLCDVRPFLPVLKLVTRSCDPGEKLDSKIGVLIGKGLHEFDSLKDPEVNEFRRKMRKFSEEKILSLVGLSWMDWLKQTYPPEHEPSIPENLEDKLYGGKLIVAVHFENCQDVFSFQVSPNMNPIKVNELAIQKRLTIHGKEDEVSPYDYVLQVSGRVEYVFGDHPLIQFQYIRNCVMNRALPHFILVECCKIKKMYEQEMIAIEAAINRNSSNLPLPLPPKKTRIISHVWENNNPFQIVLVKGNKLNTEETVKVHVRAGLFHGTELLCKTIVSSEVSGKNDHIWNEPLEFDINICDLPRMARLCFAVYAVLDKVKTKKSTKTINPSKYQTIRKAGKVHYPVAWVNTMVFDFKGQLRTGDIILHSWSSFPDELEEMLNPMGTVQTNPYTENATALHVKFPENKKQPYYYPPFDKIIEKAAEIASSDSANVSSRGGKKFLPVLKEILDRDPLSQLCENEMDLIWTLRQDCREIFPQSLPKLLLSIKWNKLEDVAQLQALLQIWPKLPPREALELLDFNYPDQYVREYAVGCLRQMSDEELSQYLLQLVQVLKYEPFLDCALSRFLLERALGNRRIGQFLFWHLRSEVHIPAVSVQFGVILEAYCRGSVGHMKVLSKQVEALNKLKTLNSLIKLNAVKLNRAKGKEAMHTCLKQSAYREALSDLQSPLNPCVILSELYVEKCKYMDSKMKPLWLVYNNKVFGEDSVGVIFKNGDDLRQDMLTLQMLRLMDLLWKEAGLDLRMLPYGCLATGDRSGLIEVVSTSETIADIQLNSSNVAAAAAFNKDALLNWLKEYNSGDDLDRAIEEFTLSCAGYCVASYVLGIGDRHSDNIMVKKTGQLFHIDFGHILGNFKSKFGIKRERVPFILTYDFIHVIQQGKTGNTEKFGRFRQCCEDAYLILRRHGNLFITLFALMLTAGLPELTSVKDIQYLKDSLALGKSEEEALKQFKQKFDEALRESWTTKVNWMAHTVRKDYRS

Sequence of Insulin-like growth factor 1 receptor (Homo sapiens) (P08069 31-736 limits assumed): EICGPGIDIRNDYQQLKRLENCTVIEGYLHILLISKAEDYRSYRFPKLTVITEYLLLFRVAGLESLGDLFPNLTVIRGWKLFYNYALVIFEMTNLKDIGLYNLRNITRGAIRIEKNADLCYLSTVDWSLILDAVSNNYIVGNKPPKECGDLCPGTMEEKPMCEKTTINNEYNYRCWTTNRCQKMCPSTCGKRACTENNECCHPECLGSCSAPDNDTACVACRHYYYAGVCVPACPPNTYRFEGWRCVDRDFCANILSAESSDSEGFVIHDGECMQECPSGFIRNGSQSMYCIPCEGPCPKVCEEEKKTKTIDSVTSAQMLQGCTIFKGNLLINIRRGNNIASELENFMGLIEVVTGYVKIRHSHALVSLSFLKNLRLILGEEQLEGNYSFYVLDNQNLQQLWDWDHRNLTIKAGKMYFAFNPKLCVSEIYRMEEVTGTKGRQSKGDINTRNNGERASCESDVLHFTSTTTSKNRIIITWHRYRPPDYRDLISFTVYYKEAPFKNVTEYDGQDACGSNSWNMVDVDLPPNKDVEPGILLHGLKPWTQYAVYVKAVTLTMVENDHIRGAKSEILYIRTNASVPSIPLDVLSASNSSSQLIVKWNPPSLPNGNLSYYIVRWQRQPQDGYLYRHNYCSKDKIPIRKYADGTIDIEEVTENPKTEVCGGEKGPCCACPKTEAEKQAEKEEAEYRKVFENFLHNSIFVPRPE
Sequence of Insulin-like growth factor 1 receptor (Homo sapiens) (P08069 741-1367 limits assumed): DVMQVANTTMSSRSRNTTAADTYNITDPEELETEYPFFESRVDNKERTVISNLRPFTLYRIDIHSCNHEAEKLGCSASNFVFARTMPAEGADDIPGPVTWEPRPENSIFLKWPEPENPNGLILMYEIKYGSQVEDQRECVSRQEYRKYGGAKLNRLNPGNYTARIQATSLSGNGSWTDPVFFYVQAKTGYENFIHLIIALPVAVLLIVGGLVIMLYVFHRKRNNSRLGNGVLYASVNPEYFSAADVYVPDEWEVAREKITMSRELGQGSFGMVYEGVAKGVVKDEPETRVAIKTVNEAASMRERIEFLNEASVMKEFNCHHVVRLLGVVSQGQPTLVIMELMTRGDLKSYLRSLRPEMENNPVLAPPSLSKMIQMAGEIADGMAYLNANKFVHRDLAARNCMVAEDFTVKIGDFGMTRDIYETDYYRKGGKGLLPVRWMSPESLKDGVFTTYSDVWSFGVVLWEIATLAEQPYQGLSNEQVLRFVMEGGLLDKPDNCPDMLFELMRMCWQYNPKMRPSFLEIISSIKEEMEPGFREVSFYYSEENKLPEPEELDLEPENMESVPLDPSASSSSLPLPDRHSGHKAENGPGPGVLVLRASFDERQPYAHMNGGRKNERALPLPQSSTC
Sequence of Serine/threonine-protein kinase MRCK alpha (Homo sapiens) (Q5VT25 whole entry, the tested form may be a part): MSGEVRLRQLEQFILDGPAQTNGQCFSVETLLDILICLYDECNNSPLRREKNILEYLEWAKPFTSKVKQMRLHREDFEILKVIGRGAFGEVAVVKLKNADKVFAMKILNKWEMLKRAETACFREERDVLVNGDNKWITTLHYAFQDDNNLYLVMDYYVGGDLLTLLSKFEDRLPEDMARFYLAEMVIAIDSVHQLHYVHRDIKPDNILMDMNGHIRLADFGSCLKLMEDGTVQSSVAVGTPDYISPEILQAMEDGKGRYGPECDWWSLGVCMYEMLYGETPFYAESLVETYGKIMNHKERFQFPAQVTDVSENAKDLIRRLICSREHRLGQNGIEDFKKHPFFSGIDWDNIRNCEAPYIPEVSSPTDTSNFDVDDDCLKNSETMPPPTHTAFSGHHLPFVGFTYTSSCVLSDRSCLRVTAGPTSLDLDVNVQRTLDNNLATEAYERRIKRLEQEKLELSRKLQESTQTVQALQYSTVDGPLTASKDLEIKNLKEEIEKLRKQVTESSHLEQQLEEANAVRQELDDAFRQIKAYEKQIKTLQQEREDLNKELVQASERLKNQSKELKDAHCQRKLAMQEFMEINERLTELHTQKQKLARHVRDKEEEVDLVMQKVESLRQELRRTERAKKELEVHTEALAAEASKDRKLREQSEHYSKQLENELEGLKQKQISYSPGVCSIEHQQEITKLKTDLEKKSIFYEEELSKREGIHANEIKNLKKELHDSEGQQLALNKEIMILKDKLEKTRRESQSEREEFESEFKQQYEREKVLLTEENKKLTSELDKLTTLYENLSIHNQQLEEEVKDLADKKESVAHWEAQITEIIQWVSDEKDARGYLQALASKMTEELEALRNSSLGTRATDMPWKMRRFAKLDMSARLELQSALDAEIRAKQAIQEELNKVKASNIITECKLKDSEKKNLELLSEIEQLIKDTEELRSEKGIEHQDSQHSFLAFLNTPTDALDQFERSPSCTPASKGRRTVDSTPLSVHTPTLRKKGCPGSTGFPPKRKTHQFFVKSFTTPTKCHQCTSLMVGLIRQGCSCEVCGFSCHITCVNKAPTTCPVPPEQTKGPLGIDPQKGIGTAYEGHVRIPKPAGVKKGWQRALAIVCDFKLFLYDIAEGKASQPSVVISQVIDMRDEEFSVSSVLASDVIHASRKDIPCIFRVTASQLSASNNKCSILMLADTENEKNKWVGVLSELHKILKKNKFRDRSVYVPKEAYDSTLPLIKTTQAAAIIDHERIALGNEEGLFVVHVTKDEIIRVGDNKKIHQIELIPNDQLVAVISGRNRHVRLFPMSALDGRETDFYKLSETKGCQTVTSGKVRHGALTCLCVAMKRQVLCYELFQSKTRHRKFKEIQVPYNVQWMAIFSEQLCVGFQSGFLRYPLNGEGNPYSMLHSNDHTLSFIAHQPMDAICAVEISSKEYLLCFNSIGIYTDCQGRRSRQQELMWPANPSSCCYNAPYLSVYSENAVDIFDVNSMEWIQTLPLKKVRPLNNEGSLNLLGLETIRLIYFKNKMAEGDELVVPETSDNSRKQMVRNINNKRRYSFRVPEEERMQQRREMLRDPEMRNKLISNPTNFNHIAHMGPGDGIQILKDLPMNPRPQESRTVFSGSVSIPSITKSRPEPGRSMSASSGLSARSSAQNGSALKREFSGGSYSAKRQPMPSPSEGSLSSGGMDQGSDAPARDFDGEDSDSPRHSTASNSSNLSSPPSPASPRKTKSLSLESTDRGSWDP

| Structure (SMILES) | Activity [1] [%] | Activity [2] [%] | Activity [3] [%] | Activity [4] [%] | Activity [5] [%] | Activity [6] [%] | Activity [7] [%] | Activity [8] [%] | Activity [9] [%] | Activity [10] [%] | Activity [11] [%] | Activity [12] [%] | Activity [13] [%] | Activity [14] [%] | Activity [15] [%] | Activity [16] [%] | Activity [17] [%] | Activity [18] [%] | Activity [19] [%] | Activity [20] [%] | also measured |
| --- | --- | --- | --- | --- | --- | --- | --- | --- | --- | --- | --- | --- | --- | --- | --- | --- | --- | --- | --- | --- | --- |
| C=CCOC(=O)c1cc(-c2ccc(/C=C3/NC(=S)NC3=O)o2)ccc1Cl | 88 | 102 | 93 | 74 | 103 | 97 | 101 | 5 | 88 | 96 | 107 | 109 | 91 | 110 | 98 | 105 | 100 | 91 | 92 | 87 | Activity [21]: 100%; Activity [22]: 97% |
| N=C1NC(=O)/C(=C\c2ccc(-c3cccc([N+](=O)[O-])c3)o2)S1 | 94 | 101 | 107 | 92 | 92 | 111 | 98 | 3 | 108 | 99 | 98 | 103 | 89 | 92 | 103 | 98 | 104 | 83 | 86 | 95 | Activity [21]: 93%; Activity [22]: 99% |
